ChEMBL document CHEMBL3627688, “Structure-based hybridization, synthesis and biological evaluation of novel tetracyclic heterocyclic azathioxanthone analogues as potential antitumor agents” (Eur J Med Chem, 2015)
Activity calls are given as the source filed them. The rule behind the calls is not given here.

Legend:
DU-145 = assay: Antiproliferative activity against human DU145 cells assessed as cell viability incubated for 72 hrs by MTT assay; assay type: functional, cell-based; conditions: DU-145, 72 h
PC-3 = assay: Antiproliferative activity against human PC3 cells assessed as cell viability incubated for 72 hrs by MTT assay; assay type: functional, cell-based; conditions: PC-3, 72 h
[1] = target: DNA topoisomerase 1 (Homo sapiens) (UniProt P11387); assay: Inhibition of human recombinant topoisomerase 1 assessed as blocking of supercoiled pHOT DNA relaxation at 50 uM incubated for 25 mins at 37 degC by ethidium bromide staining based agarose gel electrophoresis
[2] = target: DNA topoisomerase 2-alpha (Homo sapiens) (UniProt P11388); assay: Inhibition of human recombinant topoisomerase 2 alpha assessed as blocking of supercoiled pHOT DNA relaxation at 50 uM incubated for 45 mins at 37 degC by ethidium bromide staining based agarose gel electrophoresis
Chain of DNA topoisomerase 2-alpha (Homo sapiens) (P11388 whole entry): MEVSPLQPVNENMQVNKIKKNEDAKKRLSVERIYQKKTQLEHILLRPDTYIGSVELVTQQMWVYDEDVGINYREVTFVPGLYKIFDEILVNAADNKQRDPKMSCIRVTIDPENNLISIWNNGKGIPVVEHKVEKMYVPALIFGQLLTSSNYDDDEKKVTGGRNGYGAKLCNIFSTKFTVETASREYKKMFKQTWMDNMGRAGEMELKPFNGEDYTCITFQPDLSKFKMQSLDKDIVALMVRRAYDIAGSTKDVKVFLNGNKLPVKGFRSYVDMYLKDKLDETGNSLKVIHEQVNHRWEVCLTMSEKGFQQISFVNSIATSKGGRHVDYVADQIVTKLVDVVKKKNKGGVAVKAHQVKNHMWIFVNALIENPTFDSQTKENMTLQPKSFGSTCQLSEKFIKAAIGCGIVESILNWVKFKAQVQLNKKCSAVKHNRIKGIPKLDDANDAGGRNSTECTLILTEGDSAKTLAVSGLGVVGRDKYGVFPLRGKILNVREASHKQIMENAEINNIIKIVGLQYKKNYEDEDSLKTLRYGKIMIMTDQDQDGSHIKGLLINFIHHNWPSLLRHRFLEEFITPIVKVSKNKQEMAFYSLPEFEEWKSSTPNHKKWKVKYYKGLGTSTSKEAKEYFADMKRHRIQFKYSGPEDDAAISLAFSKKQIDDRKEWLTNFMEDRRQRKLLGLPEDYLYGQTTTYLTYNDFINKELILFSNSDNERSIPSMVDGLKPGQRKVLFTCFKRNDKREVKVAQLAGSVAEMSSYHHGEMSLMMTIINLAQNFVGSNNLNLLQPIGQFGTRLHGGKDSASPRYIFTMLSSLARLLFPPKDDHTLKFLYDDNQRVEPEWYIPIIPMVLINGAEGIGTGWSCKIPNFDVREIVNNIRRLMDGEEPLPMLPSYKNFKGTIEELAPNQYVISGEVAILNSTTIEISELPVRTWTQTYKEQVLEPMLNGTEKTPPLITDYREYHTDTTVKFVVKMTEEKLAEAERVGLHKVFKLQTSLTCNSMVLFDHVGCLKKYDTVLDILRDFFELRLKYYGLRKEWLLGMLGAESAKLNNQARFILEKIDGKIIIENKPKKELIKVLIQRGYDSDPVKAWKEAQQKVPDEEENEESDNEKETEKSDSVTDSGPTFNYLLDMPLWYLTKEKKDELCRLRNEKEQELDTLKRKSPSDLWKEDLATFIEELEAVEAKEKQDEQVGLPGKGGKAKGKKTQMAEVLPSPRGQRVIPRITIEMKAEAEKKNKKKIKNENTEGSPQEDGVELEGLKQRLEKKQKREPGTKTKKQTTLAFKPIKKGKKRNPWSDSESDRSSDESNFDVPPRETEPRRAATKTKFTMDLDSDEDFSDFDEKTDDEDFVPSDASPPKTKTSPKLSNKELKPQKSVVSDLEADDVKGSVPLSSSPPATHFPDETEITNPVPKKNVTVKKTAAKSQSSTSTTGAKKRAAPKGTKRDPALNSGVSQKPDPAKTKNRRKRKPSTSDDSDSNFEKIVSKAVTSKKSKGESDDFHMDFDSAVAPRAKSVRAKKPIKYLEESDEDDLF

Chain of DNA topoisomerase 1 (Homo sapiens) (P11387 whole entry): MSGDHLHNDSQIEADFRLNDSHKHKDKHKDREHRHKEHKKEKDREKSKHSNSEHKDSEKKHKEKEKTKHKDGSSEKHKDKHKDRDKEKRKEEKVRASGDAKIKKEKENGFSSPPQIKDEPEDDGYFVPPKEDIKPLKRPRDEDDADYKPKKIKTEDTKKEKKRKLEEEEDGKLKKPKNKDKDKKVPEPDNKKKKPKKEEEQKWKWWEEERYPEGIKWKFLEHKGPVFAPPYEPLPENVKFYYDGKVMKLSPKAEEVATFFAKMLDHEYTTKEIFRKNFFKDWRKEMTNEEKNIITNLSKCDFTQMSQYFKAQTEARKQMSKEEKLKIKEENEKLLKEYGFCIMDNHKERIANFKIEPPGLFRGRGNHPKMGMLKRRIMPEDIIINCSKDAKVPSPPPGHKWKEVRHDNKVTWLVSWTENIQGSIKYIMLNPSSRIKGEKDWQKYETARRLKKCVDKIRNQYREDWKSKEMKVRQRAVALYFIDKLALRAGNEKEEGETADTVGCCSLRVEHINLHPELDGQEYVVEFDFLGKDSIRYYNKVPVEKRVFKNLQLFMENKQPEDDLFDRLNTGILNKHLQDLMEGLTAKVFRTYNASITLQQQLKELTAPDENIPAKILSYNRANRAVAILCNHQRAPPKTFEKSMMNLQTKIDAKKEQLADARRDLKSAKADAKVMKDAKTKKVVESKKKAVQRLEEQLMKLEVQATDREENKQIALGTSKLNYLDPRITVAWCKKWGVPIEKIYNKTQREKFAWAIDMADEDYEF

| Structure (SMILES) | IC50 (DU-145) [µM] | IC50 (PC-3) [µM] | inhibition [1] | inhibition [2] |
| --- | --- | --- | --- | --- |
| O=c1c2cc(Cl)ccc2sc2c(N3CCC(N4CCCCC4)CC3)nc3ccccc3c12 | 10.2 | 14.2 | – | – |
| O=c1c2cc(Cl)ccc2sc2c(N3CCC(CCCC4CCNCC4)CC3)nc3ccccc3c12 | 9.02 | 6.36 | Active | – |
| O=c1c2cc(Cl)ccc2sc2c(N3CCC(O)CC3)nc3ccccc3c12 | 11.1 | 9.55 | Active | – |
| O=c1c2cc(Cl)ccc2sc2c(N3CCSCC3)nc3ccccc3c12 | > 15 | > 15 | – | – |
| CC[C@@]1(O)C(=O)OCc2c1cc1n(c2=O)Cc2cc3ccccc3nc2-1 [CAMPTOTHECIN] | 0.1 | 0.1 | – | – |
| O=c1c2cc(Cl)ccc2sc2c(N3CCCCC3)nc3ccccc3c12 | 13.4 | > 15 | – | – |
| O=c1c2cc(Cl)ccc2sc2c(N3CCCC3)nc3ccccc3c12 | > 15 | > 15 | – | – |
| COc1cc([C@@H]2c3cc4c(cc3[C@@H](O[C@@H]3O[C@@H]5CO[C@@H](C)O[C@H]5[C@H](O)[C@H]3O)[C@H]3COC(=O)[C@H]23)OCO4)cc(OC)c1O [ETOPOSIDE] | 0.4 | 4.33 | – | Active |
| COc1cccc2c1C(=O)c1c(O)c3c(c(O)c1C2=O)C[C@@](O)(C(=O)CO)C[C@@H]3O[C@H]1C[C@H](N)[C@H](O)[C@H](C)O1 [DOXORUBICIN] | 0.12 | – | – | – |
| O=c1c2cc(Cl)ccc2sc2c(N3CCC(Cc4ccccc4)CC3)nc3ccccc3c12 | > 15 | > 15 | – | – |
